Structures can show the parent of a compound that is named as a salt.
Biological target: T1, human ASK1 (Homo sapiens, UniProt Q99683)
T1 construct: a 2.2 kb DNA fragment containing an ASK1 gene was recovered from the gel; made in house; host or cells: Sf-21 insect cells, recombinant baculovirus (pFASTBAC1, Bac-to-Bac)
T1 sequence (Q99683 649-1374 limits assumed): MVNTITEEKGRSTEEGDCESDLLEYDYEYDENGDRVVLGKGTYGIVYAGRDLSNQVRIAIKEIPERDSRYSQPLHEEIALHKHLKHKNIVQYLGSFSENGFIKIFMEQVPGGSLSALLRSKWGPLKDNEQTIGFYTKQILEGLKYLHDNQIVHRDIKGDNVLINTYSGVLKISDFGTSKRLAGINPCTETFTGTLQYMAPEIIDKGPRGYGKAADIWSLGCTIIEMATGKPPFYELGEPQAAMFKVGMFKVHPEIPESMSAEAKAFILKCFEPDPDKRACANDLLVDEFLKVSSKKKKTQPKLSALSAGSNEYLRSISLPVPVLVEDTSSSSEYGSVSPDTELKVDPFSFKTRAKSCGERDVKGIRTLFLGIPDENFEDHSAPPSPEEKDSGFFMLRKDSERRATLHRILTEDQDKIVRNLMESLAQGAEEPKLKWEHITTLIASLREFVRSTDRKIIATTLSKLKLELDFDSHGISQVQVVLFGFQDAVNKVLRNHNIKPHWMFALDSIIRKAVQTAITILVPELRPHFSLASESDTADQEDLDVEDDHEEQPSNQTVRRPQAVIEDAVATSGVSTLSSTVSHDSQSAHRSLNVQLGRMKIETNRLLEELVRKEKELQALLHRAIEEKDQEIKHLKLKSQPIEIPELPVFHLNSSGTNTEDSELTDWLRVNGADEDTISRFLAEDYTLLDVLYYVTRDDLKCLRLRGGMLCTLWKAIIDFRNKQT
Assay: Scintillation assay measuring inhibition of ASK1 phosphorylation of myelin basic protein
Type: biochemical
Settings: active ASK1 protein 30 ng, myelin basic protein 1 μg, [γ-32P]ATP, room temperature 30 min; values given as ranges; read-out: Enzyme Activity IC50
Experimental: Cloning of cDNA encoding human ASK1 was conducted by PCR using primers, 5′-[…] AGAGAAGGGGA-3′ (SEQ ID NO: 1) and 5′-[…]-3′ (SEQ ID NO: 2), from human heart cDNA library (Becton, Dickinson and Company). The PCR product was subjected to agarose gel (1%) electrophoresis, a 2.2 kb DNA fragment containing an ASK1 gene was recovered from the gel, and then digested with restriction enzymes, NotI and SalI, and inserted into a plasmid pFASTBAC1 (Invitrogen) to prepare a plasmid pFB-ASK1. The insert was verified by sequencing. Recombinant baculovirus was prepared according to the procedure of the Bac-to-Bac baculovirus expression system (Invitrogen).
Sf-21 cells were seeded to achieve 1×10^6 cells/mL in 100 mL of Sf-900 II SFM medium (Invitrogen) which contains 10% fetal calf serum and then cultured at 27° C. for 24 hrs. To express ASK1 in cells, 0.15 mL of the recombinant baculovirus virus stock was added to cells, and the then cultured for 60 hrs. The cells were separated from the culture solution by centrifugation at 3000 rpm for 10 min and washed once with PBS. The cells were suspended in 10 mL of lysis buffer (25 mM HEPES (pH 7.5), 1% Triton X, 130 mM NaCl, 1 mM EDTA, 1 mM DTT, 25 mM β-glycerophosphate, Protease inhibitor complete (Roche), 1 mM sodium orthovanadate) and ruptured by four times of treatment with a homogenizer (POLYTRON) at 20000 rpm for 30 seconds. Active ASK1 protein was purified from a supernatant obtained by centrifugal separation at 40000 rpm for 45 min using anti-FLAG M2 Affinity Gel (Sigma).
The test compounds (2.5 μl) dissolved in DMSO were added to wells containing 37.5 μl of the reaction solution (25 mM HEPES (pH 7.5), 10 mM magnesium acetate, 1 mM DTT) including 30 ng of active ASK1 protein and 1 μg of myelin basic protein (Wako), and incubated at room temperature for 5 min. To start the reaction, 10 μL of ATP solution (2.5 μM ATP, 0.1 μCi [γ-^32P]ATP) was added to wells. After incubating at room temperature for 30 min, the reaction was terminated by adding 50 μl of 20% TCA solution. The reaction solution was incubated at 4° C. for 30 min and an acid-insoluble fraction was transferred onto a GF/C filter (Packard) with Cell Harvester (Packard), and washed with 250 mM phosphoric acid. After drying at 45° C. for 60 min., 40 μL of Microscint 0 (Packard) was added and the radioactivity was measured with TopCount (Packard). The concentrations (IC50 value) of the test compounds necessary for 50% inhibition of kinase activity were calculated by PRISM 3.0 (Graphpad Software).
The enzyme activities of selected compounds of the present invention against ASK1 were determined using the assay disclosed in Example A and B. The resulted pIC50 values are reported in Table 1.

| Structure (SMILES) | IC50 |
| --- | --- |
| CC(C)(O)c1ccc(C(=O)Nc2cc(NC3CC3)n3nccc3n2)cc1 [Compound 88, N-(7-(cyclopropylamino)pyrazolo[1,5-a]pyrimidin-5-yl)-4-(2-hydroxypropan-2-yl)benzamide] | 100 to 1000 nM |
| CC(C)(O)c1ccc(C(=O)Nc2cc(N3CCc4nc[nH]c(=O)c4C3)n3nccc3n2)cc1 [Compound 89, 4-(2-hydroxypropan-2-yl)-N-(7-(4-oxo-3,4,7,8-tetrahydropyrido[4,3-d]pyrimidin-6(5H)-yl)pyrazolo[1,5-a]pyrimidin-5-yl)benzamide] | < 100 nM |
| CC(C)(O)c1ccc(C(=O)Nc2cc(N3CCN(S(C)(=O)=O)CC3)n3nccc3n2)cc1 [Compound 90, 4-(2-hydroxypropan-2-yl)-N-(7-(4-(methylsulfonyl)piperazin-1-yl)pyrazolo[1,5-a]pyrimidin-5-yl)benzamide] | 100 to 1000 nM |
| CC(C)(O)c1ccc(C(=O)Nc2cc(N3CCn4cnnc4C3)n3nccc3n2)cc1 [Compound 91, N-(7-(5,6-dihydro-[1,2,4]triazolo[4,3-a]pyrazin-7(8H)-yl)pyrazolo[1,5-a]pyrimidin-5-yl)-4-(2-hydroxypropan-2-yl)benzamide] | > 1000 nM |
| CC(C)(O)c1ccc(C(=O)Nc2cc(N3CCC[C@H]3C(N)=O)n3nccc3n2)cc1 [Compound 92, (S)-1-(5-(4-(2-hydroxypropan-2-yl)benzamido)pyrazolo[1,5-a]pyrimidin-7-yl)pyrrolidine-2-carboxamide] | > 1000 nM |
| CC(C)(O)c1ccc(C(=O)Nc2cc(N3CCNC(=O)CC3)n3nccc3n2)cc1 [Compound 93, 4-(2-hydroxypropan-2-yl)-N-(7-(5-oxo-1,4-diazepan-1-yl)pyrazolo[1,5-a]pyrimidin-5-yl)benzamide] | 100 to 1000 nM |
| Cc1cc2nc(NC(=O)c3ccc(C(C)(C)CO)cc3)cc(N3CCC[C@H]3CO)n2n1 [Compound 95, (S)-4-(1-hydroxy-2-methylpropan-2-yl)-N-(7-(2-(hydroxymethyl)pyrrolidin-1-yl)-2-methylpyrazolo[1,5-a]pyrimidin-5-yl)benzamide] | 100 to 1000 nM |
| Cc1cc2nc(NC(=O)c3ccc(C(C)(C)CO)cc3)cc(N3CC(O)C3)n2n1 [Compound 97, 4-(1-hydroxy-2-methylpropan-2-yl)-N-(7-(3-hydroxyazetidin-1-yl)-2-methylpyrazolo[1,5-a]pyrimidin-5-yl)benzamide] | 100 to 1000 nM |
| CC(C)(C)c1ccc(C(=O)Nc2cc(N3CCCC(C(N)=O)C3)n3nccc3n2)cc1 (stereo not shown) [Compound 104, 1-(5-(4-tert-butylbenzamido)pyrazolo[1,5-a]pyrimidin-7-yl)piperidine-3-carboxamide] | < 100 nM |
| CC(C)(C)c1ccc(C(=O)Nc2cc(N3CCCCC3CCO)n3nccc3n2)cc1 (stereo not shown) [Compound 105, 4-tert-butyl-N-(7-(2-(2-hydroxyethyl)piperidin-1-yl)pyrazolo[1,5-a]pyrimidin-5-yl)benzamide] | < 100 nM |
| CC(C)(C)c1ccc(C(=O)Nc2cc(N3CCC(O)CC3)n3nccc3n2)cc1 [Compound 112, 4-tert-butyl-N-(7-(4-hydroxypiperidin-1-yl)pyrazolo[1,5-a]pyrimidin-5-yl)benzamide] | < 100 nM |
| CC(C)(C)c1ccc(C(=O)Nc2cc(N3CCCC(O)C3)n3nccc3n2)cc1 (stereo not shown) [Compound 113, 4-tert-butyl-N-(7-(3-hydroxypiperidin-1-yl)pyrazolo[1,5-a]pyrimidin-5-yl)benzamide] | < 100 nM |
| CN(C)c1cc(NC(=O)c2ccc(C(C)(C)C)cc2)nc2ccnn12 [Compound 125, 4-tert-butyl-N-(7-(dimethylamino)pyrazolo[1,5-a]pyrimidin-5-yl)benzamide] | < 100 nM |
| Cc1cc2nc(NC(=O)c3ccc(C(C)(C)CO)cc3)cc(N(C)CCc3ccccc3)n2n1 [Compound 127, 4-(1-hydroxy-2-methylpropan-2-yl)-N-(2-methyl-7-(methyl(phenethyl)amino)pyrazolo[1,5-a]pyrimidin-5-yl)benzamide] | > 1000 nM |
| CC(C)(C)c1ccc(C(=O)Nc2cc(NC3CC3)n3nccc3n2)cc1 [Compound 128, 4-tert-butyl-N-[7-(cyclopropylamino)pyrazolo[1,5-a]pyrimidin-5-yl]benzamide] | < 100 nM |
| Cc1cc2nc(N)cc(-c3cccc(CO)c3)n2n1 [Compound 173, (3-(5-amino-2-methylpyrazolo[1,5-a]pyrimidin-7-yl)phenyl)methanol] | > 1000 nM |
| Cc1ccc(-c2cc(N)nc3ccnn23)cc1 [Compound 174, 7-p-tolylpyrazolo[1,5-a]pyrimidin-5-amine] | > 1000 nM |
| Nc1cc(-c2cccs2)n2nccc2n1 [Compound 175, 7-(thiophen-2-yl) pyrazolo[1,5-a]pyrimidin-5-amine] | > 1000 nM |
| Nc1cc(-c2cccc(CO)c2)n2nccc2n1 [Compound 178, (3-(5-aminopyrazolo[1,5-a]pyrimidin-7-yl)phenyl)methanol] | > 1000 nM |
| Cc1cc2nc(NC(=O)c3ccc(C(C)(C)O)cc3)cc(-c3ccccc3)n2n1 [Compound 202, 4-(2-hydroxypropan-2-yl)-N-(2-methyl-7-phenylpyrazolo[1,5-a]pyrimidin-5-yl)benzamide] | < 100 nM |
| Cc1cc2nc(NC(=O)c3ccc(C(C)(C)O)cc3)cc(N3CC[C@@H](O)C3)n2n1 [Compound 203, (R)-4-(2-hydroxypropan-2-yl)-N-(7-(3-hydroxypyrrolidin-1-yl)-2-methylpyrazolo[1,5-a]pyrimidin-5-yl)benzamide] | < 100 nM |
| Cc1cc2nc(NC(=O)c3ccc(C(C)(C)O)nc3)cc(-c3ccccc3)n2n1 [Compound 315, 6-(2-hydroxypropan-2-yl)-N-(2-methyl-7-phenylpyrazolo[1,5-a]pyrimidin-5-yl)nicotinamide] | 100 to 1000 nM |
| COc1ccc(-c2cc(NC(=O)c3ccc(C(C)(C)O)nc3)nc3cc(C)nn23)cc1 [Compound 338, 6-(2-hydroxypropan-2-yl)-N-(7-(4-methoxyphenyl)-2-methylpyrazolo[1,5-a]pyrimidin-5-yl)nicotinamide, trifluoroacetate salt] | < 100 nM |
| Cc1cc2nc(NC(=O)[C@@H]3C[C@H]3c3ccccc3)cc(-c3ccccc3)n2n1 [Compound 347, (1R,2R)—N-(2-Methyl-7-phenylpyrazolo[1,5-a]pyrimidin-5-yl)-2-phenylcyclopropanecarboxamide] | < 100 nM |
| CC(=O)NC1CCN(c2cc(NC(=O)[C@@H]3C[C@H]3c3ccccc3)nc3cc(C)nn23)CC1 [Compound 356, (1R,2R)—N-(7-(4-acetamidopiperidin-1-yl)-2-methylpyrazolo[1,5-a]pyrimidin-5-yl)-2-phenylcyclopropanecarboxamide] | < 100 nM |

Source: US8921358B2, “Apoptosis signal-regulating kinase 1 inhibitors” (Takeda Pharmaceutical Company Limited, priority 2008, dated 2014)
